How the values were obtained:
[1] = target: sGC α1/β1 heterodimer (Homo sapiens (Human), UniProt Q02108+Q02153); test: Cell-based sGC functional assay (cyclic GMP assay for sGC activator: CASA assay); design: % Activation: concentration or dose not given beside the values; details: CHO-K1/sGC cells; for EC50: inflection point, 4P fit, read-out: IP; for Emax: CHO-K1, activity expressed as percentage of compound A (standard), read-out: % Activation
From the text: Cell-Based sGC Functional Assay (Cyclic GMP Assay for sGC Activator: CASA Assay)
Soluble guanylate cyclase (sGC) is a heme-containing enzyme that converts GTP to secondary messenger cGMP. Increases in cGMP levels affect several physiological processes including vasorelaxation through multiple downstream pathways. […] Heme-dependent activators (HDAs) preferentially activate sGC containing a ferrous heme group. To determine the effect of sGC activators on enzyme activity, the CASA assay was developed to monitor the generation of cGMP in a cell line that stably expresses the heterodimeric sGC protein.
A CHO-K1 cell line stably expressing the sGC α1/β1 heterodimer was generated using a standard transfection protocol. CHO-K1 cells were transfected with plasmids pIREShyghsGCα1 and pIRESneo-hsGCβ1 simultaneously using FUGENE reagent. Clones that stably express both subunits were selected with hygromycin and neomycin for ˜2 weeks. Clone #7 was chosen for the assay and was designated CHO-K1/sGC. CHO-K1/sGC cells were maintained in F-K12 medium containing 10% heat-inactivated Fetal Bovine Serum (FBS), 100 μg/mL penicillin/streptomycin, 0.5 mg/mL hygromycin and 0.25 mg/mL G418. The cells were then cryopreserved in LN2. On the day of the assay, the cells were thawed and resuspended in EBSS Assay Buffer (Sigma, E3024) supplemented with 5 mM MgCl2, 10 mM HEPES (4-(2-hydroxyethyl)piperazine-1-ethanesulfonic acid) and 0.05% BSA (bovine serum albumin) (EAB) and cell density was then adjusted to 2.25×10^5/mL with EAB. IBMX (3-isobutyl-1-methylxanthin, 0.5 mM) was added to inhibit degradation of cGMP. Compounds were diluted from DMSO stock solutions and added to the assay at a final DMSO concentration of 2.5%. Cells were pre-incubated in the presence and absence of 1 μM of Diethylenetriamine/nitric oxide adduct (DETA-NO; Sigma, 17018) for 30 min at 25° C. Compounds are subsequently added and incubated for 1 hr at 37° C. At the end of the incubation period, the reaction was terminated and the cells were lysed with the detection reagents from Cisbio Kits. The level of intracellular cGMP was determined using an HTRF-based assay kit (CisBio, 62GM2PEC), which detects the displacement of a fluorescence labeled cGMP from its specific antibody. The cGMP produced by test compounds was directly compared to the maximum cGMP production (this value was set to equal 100% activation.) of the published sGC-HDA compound A:
(Example 1 in WO 2010/065275, published Jun. 10, 2010). The test compounds' activity were then expressed as a percentage of compound A, the standard in every experiment. This percent activation was calculated either in the presence or absence of DETA-NO which was then plotted. Inflection points (IP) and maximum fold induction was derived using Abase analysis software for 4P fit.

[2] = target: human recombinant sGC enzyme (Homo sapiens (Human), UniProt Q02108+Q02153); test: Size Exclusion Chromatography (SEC) competition binding assay using [3H] Ex-77B as the radioligand; details: [3H] Ex-77B radioligand, 24 hours at 37° C.
Method: Binding Assay: The binding potencies of sGC compounds to the human recombinant sGC enzyme were determined in a Size Exclusion Chromatography (SEC) competition binding assay using [^3H] Ex-77B as the radioligand. [^3H] Ex-77B was prepared using a standardardized tritium exchange procedure. The parent (non-labeled) molecule was first iodinated then a Pd-catalyzed iodine to tritium exchange provided the labeled compound. […] Assays were conducted in 96-well plates in a total volume of 200 μL. […] Non-specific binding was defined by competition with 1 μM of Ex-77B. After the incubation period, the binding mixtures were loaded onto the gel-filtration plate (ThermoFischer Cat. No. 89808) pre-equilibrated with binding buffer and spun at 1000×g for 3 min at 4° C. on a Bench top centrifuge. The collected eluates in White Frame Clear Well Isoplates (Perkin Elmer Cat #6005040) received 100 μl of UltimaGold scintillation cocktail. The sealed plates were shaken vigorously and span, and counted after 6 hours with a Wallac Microbeta TriLux 1450 LSC & Luminescence Counter (Perkin Elmer). Data from competition experiments were analyzed to determine Ki values using one site fit Ki equation.

| SMILES | % Activation ([1]; activity expressed as percentage of compound A (standard)) [%] | EC50 [1] [nM] | Ki [2] [nM] | Emax [1] [%] |
| --- | --- | --- | --- | --- |
| CC1CCC(Cn2nc(-c3nc(N)c4c(n3)NC(=O)[C@@]4(C)c3ccc(CCC(=O)O)cc3)c3ccc(Cl)cc32)CC1 (single isomer, unassigned) [Example 5BB] | 107 | 330 | 0.182 |  |
| C[C@@]1(c2ccc(CCC(=O)O)cc2)C(=O)Nc2nc(-c3nn(CC4CCCCO4)c4cc(Cl)ccc34)nc(N)c21 (single isomer, unassigned) [Example 6A] |  | 1260 | 0.13 | 85 |
| CC(C)(Cc1coc(C2(C)C(=O)Nc3nc(-c4nn(CC5CCCCO5)c5ncccc45)nc(N)c32)n1)C(=O)O (single isomer, unassigned) [Example 124AB, 3-{2-[4-amino-5-methyl-6-oxo-2-{1-[tetrahydro-2H-pyran-2-ylmethyl]-1H-pyrazolo[3,4-b]pyridin-3-yl}-6,7-dihydro-5H-pyrrolo[2,3-d]pyrimidin-5-yl]-1,3-oxazol-4-yl}-2,2-dimethylpropanoic acid] |  |  | 0.617 |  |
| CC1CCC(Cn2nc(-c3nc(N)c4c(n3)NC(=O)[C@@]4(C)c3nc(CC(C)(C)C(=O)O)cs3)c3cccnc32)CC1 (single isomer, unassigned) [Example 125AA] |  |  | 0.783 |  |
| CC(C)(Cc1coc(C2(C)C(=O)Nc3nc(-c4nn(CC5CCCCO5)c5cc(F)ccc45)nc(N)c32)n1)C(=O)O (single isomer, unassigned) [Example 134AB, 3-{2-[4-amino-2-{6-fluoro-1-[tetrahydro-2H-pyran-2-ylmethyl]-1H-indazol-3-yl}-5-methyl-6-oxo-6,7-dihydro-5H-pyrrolo[2,3-d]pyrimidin-5-yl]-1,3-oxazol-4-yl}-2,2-dimethylpropanoic acid] |  |  | 0.461 |  |
| CC(C)(Cc1coc(C2(C)C(=O)Nc3nc(-c4nn(CC5CCCCO5)c5ccccc45)nc(N)c32)n1)C(=O)O (single isomer, unassigned) [Example 230AB, 3-{2-[4-amino-5-methyl-6-oxo-2-{1-[tetrahydro-2H-pyran-2-ylmethyl]-1H-indazol-3-yl}-6,7-dihydro-5H-pyrrolo[2,3-d]pyrimidin-5-yl]-1,3-oxazol-4-yl}-2,2-dimethyl-propanoic acid] |  |  | 0.28 |  |
| CC1(c2cccc(-c3nn[nH]n3)c2)C(=O)Nc2nc(-c3nn(CCC(F)(F)C(F)(F)F)c4cc(Cl)ccc34)nc(N)c21 (single isomer, unassigned) [Example 251B, 4-amino-2-[6-chloro-1-(3,3,4,4,4-penta-fluorobutyl)-1H-indazol-3-yl]-5-methyl-5-[3-(1H-tetrazol-5-yl)phenyl]-5,7-dihydro-6H-pyrrolo[2,3-d] pyrimidin-6-one] |  |  | 0.182 |  |
| Cc1sc(C2(C)C(=O)Nc3nc(-c4nn(CCC(F)(F)C(F)(F)F)c5cc(Cl)ccc45)nc(N)c32)nc1-c1ccc(C(=O)O)cc1 (stereo not shown) [Example 94B, 4-(2-{4-amino-2-[6-chloro-1-(3,3,4,4,4-pentafluorobutyl)-1H-indazol-3-yl]-5-methyl-6-oxo-6,7-dihydro-5H-pyrrolo[2,3-d]pyrimidin-5-yl}-5-methyl-1,3-thiazol-4-yl)benzoic acid] |  | 178 |  | 108 |
| C[C@@H](NC(=O)CCc1ccc([C@]2(C)C(=O)Nc3nc(-c4nn(Cc5ccccc5F)c5ncccc45)nc(N)c32)cc1)C(=O)O [Example 102B, (5S)-(3-(4-{4-amino-2-[1-(2-fluorobenzyl)-1H-pyrazolo[3,4-b]pyridin-3-yl]-5-methyl-6-oxo-6,7-dihydro-5H-pyrrolo[2,3-d]pyrimidin-5-yl}phenyl)propanoyl)-D-alanine] |  | 573 |  | 100 |
| CC[C@@H](NC(=O)CCc1ccc([C@]2(C)C(=O)Nc3nc(-c4nn(Cc5ccccc5F)c5ncccc45)nc(N)c32)cc1)C(=O)O [Example 104B, (5S,2R)-2-(3-(4-{4-amino-2-[1-(2-fluorobenzyl)-1H-pyrazolo[3,4-b]pyridin-3-yl]-5-methyl-6-oxo-6,7-dihydro-5H-pyrrolo[2,3-d]pyrimidin-5-yl}phenyl)propanamido)butanoic acid] |  | 1370 |  | 106 |
| C[C@H](O)[C@@H](NC(=O)CCc1ccc([C@]2(C)C(=O)Nc3nc(-c4nn(Cc5ccccc5F)c5ncccc45)nc(N)c32)cc1)C(=O)O [Example 107B, (5S)-(3-(4-{4-amino-2-[1-(2-fluorobenzyl)-1H-pyrazolo[3,4-b]pyridin-3-yl]-5-methyl-6-oxo-6,7-dihydro-5H-pyrrolo[2,3-d]pyrimidin-5-yl}phenyl)propanoyl)-D-threonine] |  | 397 |  | 113 |
| CC1(c2ccc(CCCC(=O)O)cc2)C(=O)Nc2nc(-c3nn(Cc4ccccc4F)c4cc(Cl)ccc34)nc(N)c21 (stereo not shown) [Example 115A, 4-(4-{4-amino-2-[6-chloro-1-(2-fluorobenzyl)-1H-indazol-3-yl]-5-methyl-6-oxo-6,7-dihydro-5H-pyrrolo[2,3-d]pyrimidin-5-yl}phenyl)butanoic acid] |  | 122 |  | 79 |
| CC1(c2ccc(CC(=O)O)cc2)C(=O)Nc2nc(-c3nn(Cc4ccccc4F)c4cc(Cl)ccc34)nc(N)c21 (stereo not shown) [Example 117A, 2-(4-{4-amino-2-[6-chloro-1-(2-fluorobenzyl)-1H-indazol-3-yl]-5-methyl-6-oxo-6,7-dihydro-5H-pyrrolo[2,3-d]pyrimidin-5-yl}phenyl)acetic acid] |  | 302 |  | 69 |
| CC1(c2ccc(C(=O)O)cc2)C(=O)Nc2nc(-c3nn(CCC(F)(F)C(F)(F)F)c4cc(Cl)ccc34)nc(N)c21 (stereo not shown) [Example 155B, 4-{4-amino-2-[6-chloro-1-(3,3,4,4,4-pentafluorobutyl)-1H-indazol-3-yl]-5-methyl-6-oxo-6,7-dihydro-5H-pyrrolo[2,3-d]pyrimidin-5-yl} benzoic acid] |  |  | 0.42 |  |
| CC(C)(CCc1csc(C2(C)C(=O)Nc3nc(-c4nn(Cc5ccccc5F)c5cc(Cl)ccc45)nc(N)c32)n1)C(=O)O (stereo not shown) [Example 166A, 4-(2-{4-amino-2-[6-chloro-1-(2-fluorobenzyl)-1H-indazol-3-yl]-5-methyl-6-oxo-6,7-dihydro-5H-pyrrolo[2,3-d]pyrimidin-5-yl}-1,3-thiazol-4-yl)-2,2-dimethyl-butanoic acid] |  |  |  | 86.4 |
| Cc1cccc(Cn2nc(-c3nc(N)c4c(n3)NC(=O)C4(C)c3nc(CC(C)(C)C(=O)O)co3)c3ccc(F)cc32)c1F (stereo not shown) [Example 212A, 3-(2-{4-amino-2-[6-fluoro-1-(2-fluoro-3-methyl-benzyl)-1H-indazol-3-yl]-5-methyl-6-oxo-6,7-dihydro-5H-pyrrolo[2,3-d]pyrimidin-5-yl}-1,3-oxazol-4-yl)-2,2-dimethyl-propanoic acid] |  |  |  | 135 |
| CC1(c2cc(C(=O)O)ccn2)C(=O)Nc2nc(-c3nn(Cc4ccccc4F)c4cc(Cl)ccc34)nc(N)c21 (stereo not shown) [Example 219A, 2-{4-amino-2-[6-chloro-1-(2-fluorobenzyl)-1H-indazol-3-yl]-5-methyl-6-oxo-6,7-dihydro-5H-pyrrolo[2,3-d]pyrimidin-5-yl} pyridine-4-carboxylic acid] |  |  | 0.183 |  |
| C[C@@]1(c2ccc(CCc3nn[nH]n3)cc2)C(=O)Nc2nc(-c3nn(Cc4ncccc4F)c4ccccc34)nc(N)c21 [Example 245B, (S)-5-{4-[2-(2H-tetrazol-5-yl)ethyl]phenyl}-4-amino-2-{1-[(3-fluoro-pyridin-2-yl)methyl]-1H-indazol-3-yl}-5-methyl-5,7-dihydro-6H-pyrrolo[2,3-d] pyrimidin-6-one] |  |  | 0.333 |  |

From US10030027B2, “Soluble guanylate cyclase stimulators” (MERCK SHARP & DOHME CORP., priority 2015, dated 2018)
